For data set [1] the following is noted: for time until ORP rose above 100 mV indicating H2S fully oxidized: 80 mg/L H2S water. The procedure: Hydrogen peroxide is an inexpensive oxidant for H2S removal, but is slow acting relative to several other oxidants. Shortening the reaction time or contact time required in a water treatment process reduces the volume of contact basins or increases the throughput of a treatment process such as that described in Example 17.
A portion of the 80 mg/L H2S water was treated by mixing into it a 17% wt/wt solution of hydrogen peroxide such that the molar ratio of hydrogen peroxide to sulfide was about 5.7:1. Hydrogen peroxide was added in excess such that it was not a limiting reagent in the oxidation reaction. The ORP and pH of the water was monitored to track the oxidation rate of H2S. FIG. 3 depicts the progression of ORP and pH over time during oxidation.
A second portion of the 80 mg/L H2S water was treated by mixing into it a 17% wt/wt solution of hydrogen peroxide such that the molar ratio of hydrogen peroxide to sulfide was about 5.7:1. A small portion of muriatic acid (about 34% hydrochloric acid solution) was added with the hydrogen peroxide to slightly lower the pH to between 6.5 and 7.0 thereby converting at least a portion of the NaHS to H2S and accelerate the reaction rate. FIG. 4 depicts the progression of ORP and pH over time during oxidation.

Data set [2] deals with Total bacteria. The data set is described as follows: Removal of bacteria from high H2S water, Luminultra ATP test method (Example 17). The data set is classed as cell-based. As to the method: A high H2S water sample near Odessa, Tex., USA was tested for H2S and bacteria removal.
A 600 mL portion of the water was transferred by siphon pump to a 1 L beaker outfitted with a magnetic stir bar, pH probe, ORP probe and a sealed cover with a small opening for adding chemicals. The solution was mixed at a moderate rate at room temperature using a magnetic stir plate while a 17% hydrogen peroxide solution was added in a 1.9:1 molar ratio of oxidant to sulfide to remove about 80% of the H2S. […] After 10 minutes of reaction time aluminum coagulant and anionic flocculation polymer dispersion were added causing a rapid flocculation and settling of most of the pale yellow solids. The clarified supernatant was decanted to a second beaker outfitted the same as the first.
A 500 mL portion of the supernatant above was mixed while a 2.1% sodium peracetate solution was added in a 1.6:1 molar ratio of oxidant to sulfide to remove the remaining 20% of the H2S and promote a final clarification and bacteria removal. […] After 10 minutes of reaction time aluminum coagulant and anionic flocculation polymer dispersion were added causing a rapid flocculation and settling of the pale solids.

The subject of data set [3] is acid producing bacteria (APB). Kind of data set: Uintah basin produced water: acid producing bacteria level. As to conditions: for APB: untreated 100-1000. It counts as cell-based. As to the method:
(§1) Produced water from the Uintah basin in eastern Utah was tested for sulfide treatment and clarification with sodium peracetate solution. The untreated water appeared green-grey in color, was pH 8.1 and contained about 30 mg/L H2S (as S^2), 90 mg/L organic or other sulfides (as S^2−), and 90 mg/L sulfate. Total iron was about 5 mg/L therefore iron sulfide was only a minor sulfide component.
(§2) A first water sample was treated by a “partial oxidation” in Table II with sodium peracetate oxidant solution. The water was stirred in a closed container while sodium peracetate oxidant was added in a 1.25:1 molar ratio of oxidant to H2S. Aluminum coagulant (about 35 mg/L as Al) was added with the oxidant. The mixture was stirred for 30 seconds and then about 5 mg/L of anionic polymer was added. Large floe formed rapidly over the next 60 seconds and then stirring was stopped. The flocculated solids settled rapidly leaving a clear, colorless supernatant. The “partial oxidation” treatment removed hydrogen sulfide and reduced acid producing bacteria (APB) and sulfate reducing bacteria (SRB) levels to 1-10 cells/mL for each. The ORP increased from −166 mV to 88 mV vs SHE (oxidant was fully consumed) and there was a 20 ppm increase in sulfate concentration due to oxidation of a small portion of sulfur-containing contaminants to sulfate.
(§3) A second water sample was treated by a “full oxidation” in Table II with sodium peracetate oxidant solution. The water was stirred in a closed container while sodium peracetate oxidant was added in a 3.8:1 molar ratio of oxidant to H2S. Aluminum coagulant (about 35 mg/L as Al) was added with the oxidant. The mixture was stirred for 30 seconds and then about 5 mg/L of anionic polymer was added. Large floe formed rapidly over the next 60 seconds and then stirring was stopped. The flocculated solids settled rapidly leaving a clear, colorless supernatant. […]

In data set [4] the test system is sulfate reducing bacteria (SRB). Kind of data set: Uintah basin produced water: sulfate reducing bacteria level. The data set is classed as cell-based. As to conditions: for SRB: untreated 10-100. As to the method:
as §1, §2, §3

For data set [5] the following is noted: 7% sodium peracetate solution in clean water; cited from earlier work.
Data set [6] concerns naturally occurring microbes. The data set is described as follows: Preservation of guar mixture against microbial growth. The data set is classed as cell-based. As to conditions: about 65 mg/L oxidant, at least a week at room temperature. The procedure: The use of the sodium peracetate oxidant formulation was tested for the depolymerization and break down of guar gum.
The guar mixture was made by rapidly mixing 10 g/L food grade guar gum powder into a 10 g/L sodium chloride solution in distilled water. The blended mixture was heated to about 35-40° C. in a heated water bath for at least one hour to fully hydrate the guar. The mixture appeared translucent with fine, milky white suspended solids. […] Several 60 mL portions of the guar mixture were prepared for different treatments as summarized in Table I. The first was a control sample to which no oxidant was added. The remaining samples had increasing amounts of sodium peracetate oxidant added to them. […] The oxidant was rapidly mixed with the guar mixture resulting in a pale yellow color. The mixtures were placed in a water bath at about 35-40° C. and the yellow color gradually faded away over the next hour. After two hours the samples were cooled to room temperature.
The control sample remained viscous for a day, but lost viscosity after sitting at room temperature overnight and microbial growth as a biofilm was visible after a week. […] The fine, suspended solids settled out leaving a clear, colorless solution. A second treatment of the last sample reduced the viscosity further by a small amount.

A short description of data set [7]: Stability of sodium peracetate oxidant solution (half-life, loss of active oxidant). The data set is classed as physicochemical. The text has this:
However, the sodium peracetate oxidant solutions were discovered to be stable enough, when diluted to below 1% concentration, to have a working time practical for producing large volumes of treatment fluids in a tank for down-hole well treatment applications including hydrogen sulfide mitigation, bacteria reduction, iron sulfide scale cleaning and polymer gel breaking.
In some embodiments, to conduct a well treatment a large, diluted volume of sodium peracetate oxidant solution is preferably staged in a carrier fluid having no oxidant demand. The carrier fluid may include fresh water, salt water, treated production water and, optionally, combined with other treatment chemicals such as hydrochloric acid, citric acid, acetic acid, acid-containing micellar solvent, corrosion inhibitor, and iron chelant. Lower concentrations, less than 1%, of sodium peracetate oxidant may be staged for a limited period of time with small losses in active oxidant. For example, a 0.25% solution is expected to lose about 4-6% of its active sodium peracetate per hour at 20° C. A container, tank or tanker truck of sodium peracetate solution must be vented to release oxygen gas byproduct evolved from the oxidant as it naturally degrades in a carrier fluid.
In this example a diluted sodium peracetate oxidant solution is staged in 500 barrel (21,000 gal) quantities produced in a 55 minute period. […]

[8] abbreviates: Treated Water Full Oxidation (3.8:1).
[9] abbreviates: Treated Water Partial Oxidation (1.25:1).
Setting [10] is: full oxidation (3.8:1), after 4 months at room temperature.

Entries after “also recorded” stand apart in the source; their conditions may differ. Like-named read-outs stand apart in the source and are kept apart here.

`OO` [hydrogen peroxide]: the “time until ORP rose above 100 mV indicating H2S fully oxidized” value in data set [1] (17% wt/wt hydrogen peroxide, 5.7:1 molar to sulfide, no acid) was “about 22 minutes”; in data set [1] (hydrogen peroxide 5.7:1 with muriatic acid, pH between 6.5 and 7.0), “about 9 minutes”. In addition, in data set [1] (hydrogen peroxide 5.7:1 with muriatic acid versus without), the “rate of H2S oxidation when acid was added with the oxidant” value is “approximately doubled”. Besides, in data set [2] (first step: hydrogen peroxide 1.9:1, then coagulant and polymer), the “ATP and corresponding bacteria population reduced by” value is “about 95%”. For the same molecule, the “ATP concentration in supernatant” value in data set [2] (first step: hydrogen peroxide 1.9:1, then coagulant and polymer, untreated 280 pg/mL) was found to be 14 pg/mL.
With “sodium peracetate [sodium peracetate oxidant solution]”, the APB in data set [3] (setting [8]) was less than 1 cells/mL; in data set [3] (setting [9]), 1-10 cells/mL. For the same molecule, the “grow back of APB” value in data set [3] (setting [10]) is “no detectable grow back”. Also, the values for the SRB in data set [4] (setting [8]) and in data set [4] (setting [9]) were less than 1 cells/mL and 1-10 cells/mL, respectively. In data set [4] (setting [10]), the “grow back of SRB” value was “no detectable grow back”. For the same molecule, the “ATP and corresponding bacteria population reduced by, relative to the untreated water” value in data set [2] (after second step: sodium peracetate 1.6:1 following hydrogen peroxide step) was found to be 99%. The “ATP concentration in supernatant” value in data set [2] (second step: sodium peracetate 1.6:1 after hydrogen peroxide step) worked out at 3 pg/mL. Also, the half-life entry in data set [5] was “about 80 minutes”. Also, the “microbial growth in guar mixture (preservative effect)” value in data set [6] was “did act as a preservative; also recorded: no microbial growth was observed”. Further, in data set [7] (0.2% diluted solution, in 55 minutes at 25° C.), the “loss of active oxidant concentration” value is given as approximately 4%. In addition, the “loss of active sodium peracetate per hour” value in data set [7] (0.25% solution, 20° C.) is 4-6%.

(Values after US10941063B2 (priority 2015, dated 2021).)
